# Results taken from patent US8288342B2, “Methods for treating vasomotor symptoms in castrated prostatic cancer patients with low dose cyproterone acetate” (priority 2008, dated 2012).
# Tests used:
# [1] = tested on: hot flashes following surgical or medical castration of prostate cancer patients; assay: Randomized, multicenter, placebo-controlled Phase 2 trial of CPA 5, 15, 25 mg/day: hot flash efficacy; assay type: in vivo, human; details: for Reduction in average severity of moderate to severe hot flashes compared to placebo (positive) / Reduction in weekly average severity of hot flashes compared to placebo (Table 7 analysis, positive) / LS Mean Change in Weekly Average Severity of All Hot Flashes / LS Mean Change in Weekly Average Severity of Moderate to Severe Hot Flashes: 4-point scale; for Fewer weekly moderate to severe hot flashes compared to placebo (reduction, positive): baseline to end-of-treatment
# Description: The inclusion criteria included male (>18 years) prostate cancer patients who have undergone bilateral orchiectomy or have used or are using LHRH analogue drug([…]®, Aberelix®), and have complained of bothersome hot flashes as defined by the occurrence of at least 3 moderate to severe hot flashes per day or 21 per week at baseline. Hot flashes were present for at least 1 month prior to study entry. […] A total of 121 clinical sites in the United States and Canada participated in this Phase 2 study with 77 sites enrolling at least one subject. The overall study duration for each subject was approximately 19 weeks, which included a screening period of up to 4 weeks, a one-week placebo run-in period, a 12-week double-blind period, and a follow-up telephone call two weeks after the last dose of study medication. After providing informed consent on the first day of the screening period, all subjects had medical and hot flash history recorded, a physical examination, a chest x-ray and Doppler to assess known thromboembolic risk factors, an ECG to evaluate cardiac risks, and clinical laboratory evaluations. Once all results of tests conducted during the screening period were obtained, subjects who met all of the inclusion criteria and none of the exclusion criteria were eligible to enter the one-week, single-blind, placebo run-in period. […] CPA 5, 15, or 25 mg/day or placebo. After beginning study medication, subjects returned for study visits at weeks 2, 4, 8, and 12. Two weeks after the final treatment visit, a telephone follow-up call was conducted to record and evaluate adverse events (“AE”s) since the last study visit. Each subject received one tablet daily, which was administered orally. All tablets were blinded and identical in appearance. The formulation used in this study was an immediate release product containing 5, 15, or 25 mg of CPA. The CPA tablets are described in Example 1. The dosage form for the CPA used in this study was an identical, blind, modified oval, scored, immediate release oral tablet for each strength, consisting of cyproterone acetate, lactose, microcrystalline cellulose, crospovidone, sodium lauryl sulfate, silicon dioxide, magnesium stearate, and stearic acid. Placebo tablets included the same constituents but without CPA and were identical in appearance to the active tablets. During the single-blind placebo run-in period, subjects received one medication bottle containing a one week+2 day supply (9 tablets total) of single-blind placebo tablets and a copy of the Subject Information Sheet. Subjects were instructed to take one tablet each morning by mouth, preferably with a meal, at approximately the same time each day. Subjects were not made aware that they were receiving placebo. Following randomization at Visit 2, all enrolled and eligible subjects were randomized equally to one of four treatment groups (CPA 5, 15, 25 mg, or placebo) and received the study medication on the same day. At treatment visits 0, 4, and 8 weeks following initiation, each subject received one medication bottle containing a one-month supply+7 (35 tablets total) of double-blind […] tablets and a copy of the Subject Information Sheet. Subjects were instructed to take one tablet each morning by mouth, preferably with a meal, at approximately the same time each day. This study was designed to evaluate three doses of CPA (5 mg, 15 mg, and 25 mg) for the treatment of hot flashes in prostate cancer patients. Observation of a reduction in the frequency and severity of hot flashes was considered a reasonable and reliable indicator of the efficacy of active treatment. The primary measure of efficacy was the change in weekly frequency and weekly average severity of moderate to severe hot flashes from the placebo run-in period to the final week of treatment. […]
# [2] = tested on: hot flashes in castrated prostatic cancer patients; assay: Prior study of 50 mg and 100 mg CPA: hot flash efficacy; assay type: in vivo, human; details: N 236
# Protocol: The results of this study were compared with results from a prior study in which the efficacy of 50 mg and 100 mg of CPA was investigated. Efficacy data for the 50 mg and 100 mg studies showing a reduction in average daily number of moderate to severe hot flashes, and a reduction in average severity of hot flashes is shown in FIGS. 6 and 7, respectively. A comparison of the percent of patients with complete disappearance of all hot flashes at 12 weeks of treatment across studies is shown in Table 10.
# [3] = all three treatment groups (5, 15, 25 mg/day)
smiles,measurement,setting,value
"CC(=O)O[C@]1(C(C)=O)CC[C@H]2[C@@H]3C=C(Cl)C4=CC(=O)[C@@H]5C[C@@H]5[C@]4(C)[C@H]3CC[C@@]21C [CPA, cyproterone acetate]",% With Complete Disappearance of All Hot Flashes at 12 Weeks/End-of-Treatment,"[1]; CPA 5 mg, N 80",27.5%
same,Proportion of subjects with total elimination of moderate to severe hot flashes (Yes),[1]; CPA 5 mg/day,27.27%
same,Proportion of subjects without total elimination of moderate to severe hot flashes (No),[1]; CPA 5 mg/day,72.73%
same,Reduction in average frequency of all hot flashes compared to placebo (positive),[1]; CPA 5 mg/day,27.73 units
same,"Subjects without total elimination of moderate to severe hot flashes (No), number",[1]; CPA 5 mg/day,56
same,LS Mean Change in Total Weekly Moderate to Severe Hot Flash Frequency,"[1]; CPA 5 mg/day oral, Baseline (Day 0) to End-of-Treatment (Day 84)",−40.47
same,"Subjects with total elimination of moderate to severe hot flashes (Yes), number","[1]; CPA 5 mg/day, out of 77",21
same,Reduction in average severity of moderate to severe hot flashes compared to placebo (positive),[1]; CPA 5 mg/day,0.86 units
same,"Reduction in weekly average severity of hot flashes compared to placebo (Table 7 analysis, positive)",[1]; CPA 5 mg/day,0.60 units
same,Difference from placebo in change of Total Weekly Moderate to Severe Hot Flash Frequency,"[1]; CPA 5 mg/day, Day 0 to Day 84",−23.08
same,Difference from placebo in change of Weekly Average Frequency of All Hot Flashes,"[1]; CPA 5 mg/day, Day 0 to Day 84",−27.73
same,Difference from placebo in change of Weekly Average Severity of All Hot Flashes,"[1]; CPA 5 mg/day, Day 0 to Day 84",−0.6
same,Difference from placebo in change of Weekly Average Severity of Moderate to Severe Hot Flashes,"[1]; CPA 5 mg/day, Day 0 to Day 84",−0.86
same,LS Mean Change in Weekly Average Frequency of All Hot Flashes,"[1]; CPA 5 mg/day, Day 0 to Day 84",−50.67
same,LS Mean Change in Weekly Average Severity of All Hot Flashes,"[1]; CPA 5 mg/day, Day 0 to Day 84",−0.76
same,LS Mean Change in Weekly Average Severity of Moderate to Severe Hot Flashes,"[1]; CPA 5 mg/day, Day 0 to Day 84",−1.06
same,"Fewer weekly moderate to severe hot flashes compared to placebo (reduction, positive)",[1]; CPA 5 mg/day,23.08
same,% With Complete Disappearance of All Hot Flashes at 12 Weeks/End-of-Treatment,"[1]; CPA 15 mg, N 96",32.3%
same,Proportion of subjects with total elimination of moderate to severe hot flashes (Yes),[1]; CPA 15 mg/day,32.63%
same,Proportion of subjects without total elimination of moderate to severe hot flashes (No),[1]; CPA 15 mg/day,67.37%
same,Reduction in average frequency of all hot flashes compared to placebo (positive),[1]; CPA 15 mg/day,32.69 units
same,"Subjects without total elimination of moderate to severe hot flashes (No), number",[1]; CPA 15 mg/day,64
same,LS Mean Change in Total Weekly Moderate to Severe Hot Flash Frequency,"[1]; CPA 15 mg/day oral, Day 0 to Day 84",−45.05
same,"Subjects with total elimination of moderate to severe hot flashes (Yes), number","[1]; CPA 15 mg/day, out of 95",31
same,Reduction in average severity of moderate to severe hot flashes compared to placebo (positive),[1]; CPA 15 mg/day,1.13 units
same,"Reduction in weekly average severity of hot flashes compared to placebo (Table 7 analysis, positive)",[1]; CPA 15 mg/day,0.78 units
same,Difference from placebo in change of Total Weekly Moderate to Severe Hot Flash Frequency,"[1]; CPA 15 mg/day, Day 0 to Day 84",−27.66
same,Difference from placebo in change of Weekly Average Frequency of All Hot Flashes,"[1]; CPA 15 mg/day, Day 0 to Day 84",−32.69
same,Difference from placebo in change of Weekly Average Severity of All Hot Flashes,"[1]; CPA 15 mg/day, Day 0 to Day 84",−0.78
same,Difference from placebo in change of Weekly Average Severity of Moderate to Severe Hot Flashes,"[1]; CPA 15 mg/day, Day 0 to Day 84",−1.13
same,LS Mean Change in Weekly Average Frequency of All Hot Flashes,"[1]; CPA 15 mg/day, Day 0 to Day 84",−55.63
same,LS Mean Change in Weekly Average Severity of All Hot Flashes,"[1]; CPA 15 mg/day, Day 0 to Day 84",−0.94
same,LS Mean Change in Weekly Average Severity of Moderate to Severe Hot Flashes,"[1]; CPA 15 mg/day, Day 0 to Day 84",−1.33
same,"Fewer weekly moderate to severe hot flashes compared to placebo (reduction, positive)",[1]; CPA 15 mg/day,27.66
same,% With Complete Disappearance of All Hot Flashes at 12 Weeks/End-of-Treatment,"[1]; CPA 25 mg, N 86",36.1%
same,Proportion of subjects with total elimination of moderate to severe hot flashes (Yes),[1]; CPA 25 mg/day,36.05%
same,Proportion of subjects without total elimination of moderate to severe hot flashes (No),[1]; CPA 25 mg/day,63.95%
same,Reduction in average frequency of all hot flashes compared to placebo (positive),[1]; CPA 25 mg/day,33.93 units
same,"Subjects without total elimination of moderate to severe hot flashes (No), number",[1]; CPA 25 mg/day,55
same,LS Mean Change in Total Weekly Moderate to Severe Hot Flash Frequency,"[1]; CPA 25 mg/day oral, Day 0 to Day 84",−46.14
same,"Subjects with total elimination of moderate to severe hot flashes (Yes), number","[1]; CPA 25 mg/day, out of 86",31
same,Reduction in average severity of moderate to severe hot flashes compared to placebo (positive),[1]; CPA 25 mg/day,0.94 units
same,"Reduction in weekly average severity of hot flashes compared to placebo (Table 7 analysis, positive)",[1]; CPA 25 mg/day,0.77 units
same,Difference from placebo in change of Total Weekly Moderate to Severe Hot Flash Frequency,"[1]; CPA 25 mg/day, Day 0 to Day 84",−28.75
same,Difference from placebo in change of Weekly Average Frequency of All Hot Flashes,"[1]; CPA 25 mg/day, Day 0 to Day 84",−33.93
same,Difference from placebo in change of Weekly Average Severity of All Hot Flashes,"[1]; CPA 25 mg/day, Day 0 to Day 84",−0.77
same,Difference from placebo in change of Weekly Average Severity of Moderate to Severe Hot Flashes,"[1]; CPA 25 mg/day, Day 0 to Day 84",−0.94
same,LS Mean Change in Weekly Average Frequency of All Hot Flashes,"[1]; CPA 25 mg/day, Day 0 to Day 84",−56.87
same,LS Mean Change in Weekly Average Severity of All Hot Flashes,"[1]; CPA 25 mg/day, Day 0 to Day 84",−0.93
same,LS Mean Change in Weekly Average Severity of Moderate to Severe Hot Flashes,"[1]; CPA 25 mg/day, Day 0 to Day 84",−1.14
same,"Fewer weekly moderate to severe hot flashes compared to placebo (reduction, positive)",[1]; CPA 25 mg/day,28.75
same,"Treating all hot flashes, including mild, moderate, and severe","[1]; all three doses (5, 15, 25 mg/day)",effective
same,Total weekly frequency of moderate to severe hot flashes over placebo,[1]; [3],statistically significant reduction
same,Weekly average frequency of all hot flashes over placebo,[1]; [3],statistically significant reduction
same,Weekly average severity of all hot flashes over placebo,[1]; [3],statistically significant reduction
same,Weekly average severity of moderate to severe hot flashes over placebo,[1]; [3],statistically significant reduction
same,% With Complete Disappearance of All Hot Flashes at 12 Weeks/End-of-Treatment,[2]; CPA 50 mg,38.5%
same,% With Complete Disappearance of All Hot Flashes at 12 Weeks/End-of-Treatment,[2]; CPA 100 mg,46.0%
